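GI50 marks 50% less growth. TGI denotes the concentration required for complete inhibition of growth.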
Legend:
Experiment in all cases: inhibition of tumour cell growth, NCI panel, 384-well format
UO-31 renal = tested on: UO-31 renal
OVCAR-4 ovarian = tested on: OVCAR-4 ovarian
UACC-257 melanoma = tested on: UACC-257 melanoma
LOX IMVI melanoma = tested on: LOX IMVI melanoma
MDA-MB-468 breast = tested on: MDA-MB-468 breast
BT-549 breast = tested on: BT-549 breast
MDA-MB-435 melanoma = tested on: MDA-MB-435 melanoma
SW-620 colon = tested on: SW-620 colon
HOP-92 NSCLC = tested on: HOP-92 NSCLC
SK-MEL-28 melanoma = tested on: SK-MEL-28 melanoma
NCI-H226 lung = tested on: NCI-H226 lung
SF-268 CNS = tested on: SF-268 CNS
HL-60(TB) leukemia = tested on: HL-60(TB) leukemia
HCC-2998 colon = tested on: HCC-2998 colon
TK-10 renal = tested on: TK-10 renal
DU-145 prostate = tested on: DU-145 prostate
NCI-H322M lung = tested on: NCI-H322M lung
HS 578T breast = tested on: HS 578T breast
RXF 393 renal = tested on: RXF 393 renal
OVCAR-5 ovarian = tested on: OVCAR-5 ovarian
MDA-MB-231 breast = tested on: MDA-MB-231 breast
HT29 colon = tested on: HT29 colon
KM12 colon = tested on: KM12 colon
HOP-62 NSCLC = tested on: HOP-62 NSCLC
OVCAR-8 ovarian = tested on: OVCAR-8 ovarian
IGROV1 ovarian = tested on: IGROV1 ovarian
NCI-H23 lung = tested on: NCI-H23 lung
COLO 205 colon = tested on: COLO 205 colon
A498 renal = tested on: A498 renal
CAKI-1 renal = tested on: CAKI-1 renal
EKVX NSCLC = tested on: EKVX NSCLC
SK-MEL-2 melanoma = tested on: SK-MEL-2 melanoma
SN12C renal = tested on: SN12C renal
A549 NSCLC = tested on: A549 NSCLC
PC-3 prostate = tested on: PC-3 prostate
HCT-116 colon = tested on: HCT-116 colon
SNB-75 CNS = tested on: SNB-75 CNS
SF-295 CNS = tested on: SF-295 CNS
HCT-15 colon = tested on: HCT-15 colon
OVCAR-3 ovarian = tested on: OVCAR-3 ovarian
ACHN renal = tested on: ACHN renal
M14 melanoma = tested on: M14 melanoma
MALME-3M melanoma = tested on: MALME-3M melanoma
NCI-H522 lung = tested on: NCI-H522 lung
MCF7 breast = tested on: MCF7 breast
NCI-H460 NSCLC = tested on: NCI-H460 NSCLC
U251 glioblastoma = tested on: U251 glioblastoma
T-47D breast = tested on: T-47D breast
786-0 renal = tested on: 786-0 renal
SF-539 CNS = tested on: SF-539 CNS
SK-OV-3 ovarian = tested on: SK-OV-3 ovarian
MOLT-4 leukemia = tested on: MOLT-4 leukemia
K-562 leukemia = tested on: K-562 leukemia
SNB-19 CNS = tested on: SNB-19 CNS
UACC-62 melanoma = tested on: UACC-62 melanoma

O=C(CCCCCCC(=O)Nc1ccccc1)NO
GI50 (UO-31 renal): 2150 nM
TGI (UO-31 renal): 9080 nM
GI50 (OVCAR-4 ovarian): 3150 nM
TGI (OVCAR-4 ovarian): 8550 nM
GI50 (UACC-257 melanoma): 626 nM
TGI (UACC-257 melanoma): 2450 nM
GI50 (LOX IMVI melanoma): 1450 nM
TGI (LOX IMVI melanoma): 2790 nM
GI50 (MDA-MB-468 breast): 365 nM
TGI (MDA-MB-468 breast): 1090 nM
GI50 (BT-549 breast): 2490 nM
TGI (BT-549 breast): 7020 nM
GI50 (MDA-MB-435 melanoma): 1540 nM
TGI (MDA-MB-435 melanoma): 3390 nM
GI50 (SW-620 colon): 948 nM
TGI (SW-620 colon): 2270 nM
GI50 (HOP-92 NSCLC): 1610 nM
TGI (HOP-92 NSCLC): 3980 nM
GI50 (SK-MEL-28 melanoma): 988 nM
TGI (SK-MEL-28 melanoma): 2520 nM
GI50 (NCI-H226 lung): 3930 nM
TGI (NCI-H226 lung): 16800 nM
GI50 (SF-268 CNS): 1250 nM
TGI (SF-268 CNS): 2810 nM
GI50 (HL-60(TB) leukemia): 348 nM
TGI (HL-60(TB) leukemia): 733 nM
GI50 (HCC-2998 colon): 1650 nM
TGI (HCC-2998 colon): 3980 nM
GI50 (TK-10 renal): 1270 nM
TGI (TK-10 renal): 4850 nM
GI50 (DU-145 prostate): 729 nM
TGI (DU-145 prostate): 2320 nM
GI50 (NCI-H322M lung): 1510 nM
TGI (NCI-H322M lung): 5810 nM
GI50 (HS 578T breast): 736 nM
TGI (HS 578T breast): 2230 nM
GI50 (RXF 393 renal): 471 nM
TGI (RXF 393 renal): 1410 nM
GI50 (OVCAR-5 ovarian): 853 nM
TGI (OVCAR-5 ovarian): 3050 nM
GI50 (MDA-MB-231 breast): 1090 nM
TGI (MDA-MB-231 breast): 2910 nM
GI50 (HT29 colon): 1370 nM
TGI (HT29 colon): 3120 nM
GI50 (KM12 colon): 329 nM
TGI (KM12 colon): 10700 nM
GI50 (HOP-62 NSCLC): 1200 nM
TGI (HOP-62 NSCLC): 4990 nM
GI50 (OVCAR-8 ovarian): 486 nM
TGI (OVCAR-8 ovarian): 2400 nM
GI50 (IGROV1 ovarian): 886 nM
TGI (IGROV1 ovarian): 2350 nM
GI50 (NCI-H23 lung): 1370 nM
TGI (NCI-H23 lung): 3990 nM
GI50 (COLO 205 colon): 1480 nM
TGI (COLO 205 colon): 2930 nM
GI50 (A498 renal): 1520 nM
TGI (A498 renal): 3420 nM
GI50 (CAKI-1 renal): 704 nM
TGI (CAKI-1 renal): 2120 nM
GI50 (EKVX NSCLC): 3800 nM
TGI (EKVX NSCLC): 28500 nM
GI50 (SK-MEL-2 melanoma): 369 nM
TGI (SK-MEL-2 melanoma): 982 nM
GI50 (SN12C renal): 1810 nM
TGI (SN12C renal): 4220 nM
GI50 (A549 NSCLC): 1410 nM
TGI (A549 NSCLC): 4160 nM
GI50 (PC-3 prostate): 1480 nM
TGI (PC-3 prostate): 3930 nM
GI50 (HCT-116 colon): 461 nM
TGI (HCT-116 colon): 1730 nM
GI50 (SNB-75 CNS): 399 nM
TGI (SNB-75 CNS): 2630 nM
GI50 (SF-295 CNS): 1810 nM
TGI (SF-295 CNS): 6070 nM
GI50 (HCT-15 colon): 2530 nM
TGI (HCT-15 colon): 10300 nM
GI50 (OVCAR-3 ovarian): 1570 nM
TGI (OVCAR-3 ovarian): 4240 nM
GI50 (ACHN renal): 1330 nM
TGI (ACHN renal): 3590 nM
GI50 (M14 melanoma): 1490 nM
TGI (M14 melanoma): 7780 nM
GI50 (MALME-3M melanoma): 400 nM
TGI (MALME-3M melanoma): 1460 nM
GI50 (NCI-H522 lung): 431 nM
TGI (NCI-H522 lung): 1780 nM
GI50 (MCF7 breast): 1020 nM
TGI (MCF7 breast): 2490 nM
GI50 (NCI-H460 NSCLC): 876 nM
TGI (NCI-H460 NSCLC): 4810 nM
GI50 (U251 glioblastoma): 1300 nM
TGI (U251 glioblastoma): 2860 nM
GI50 (T-47D breast): 667 nM
TGI (T-47D breast): 2350 nM
GI50 ([…]-0 renal): 2190 nM
TGI (786-0 renal): 10400 nM
GI50 (SF-539 CNS): 2040 nM
TGI (SF-539 CNS): 12300 nM
GI50 (SK-OV-3 ovarian): 1680 nM
TGI (SK-OV-3 ovarian): 4150 nM
GI50 (MOLT-4 leukemia): 190 nM
TGI (MOLT-4 leukemia): 444 nM
GI50 (K-562 leukemia): 408 nM
TGI (K-562 leukemia): 1490 nM
GI50 (SNB-19 CNS): 1990 nM
TGI (SNB-19 CNS): 5210 nM
GI50 (UACC-62 melanoma): 467 nM
TGI (UACC-62 melanoma): 1570 nM
